Test results as given in US7351690B2, “Knockout identification of target-specific sites in peptides” (priority 2000, dated 2008).
Square brackets hold non-standard residues; d marks the D form. Primed or numbered codes have the meaning given here. Ends that are not written are not given here. pGlu = O=C1CC[C@@H](C(=O)O)N1; Nle = CCCC[C@H](N)C(=O)O; dH′ = not defined here

Test system: bombesin receptor
Assay: competitive binding assay, 125I-Bombesin, rat brain membranes
Settings: for % Inhibition: inhibition of 0.01 nM 125I-Bombesin binding, rat brain membranes, test concentration not given
Method: Rat brain membranes were utilized as the source of bombesin receptor. The competitive binding assay was performed using a procedure as described by Moody T W, Perk C B, Rivier J, Brown, M R. (Proc Natl Acad Sci USA. 75:5372-5376, […]) and adapted to a 96 well format. An aliquot of membranes taken in assay buffer (50 mM Tris and HCl, pH 7.4 containing 1 mg/mL BSA and 2 μg/mL bacitracin) was incubated with 0.01 nM of ^125I-Bombesin with or without varying concentrations of the test compound for 60 min at 4° C. The incubation was terminated by rapid filtration of the assay mixture, followed by washing the filters with ice-cold buffer. The filters were dried and counted in a gamma counter for retained radioactivity. Non-specific binding was measured by including 1 μM Bombesin in the assay tube. The assay was performed in triplicate and results calculated to determine percentage inhibition of the ^125I-Bombesin binding to its receptors by a test compound. The parent polypeptide is shown in Table 6, with metallopeptides having Cys inserted as shown.

| Substance | % Inhibition [%] | binding to bombesin receptor, in words |
| --- | --- | --- |
| Pyr-Gln-Arg-Leu-Gly-Asn-Gln-Trp-Cys-Ala-Val-Gly-His-Leu-Nle-NH2 ([pGlu]QRLGNQWCAVGHL[Nle]-NH2; numbers in words are those of the source; also: rhenium complex (oxorhenium(V) N3S1 tetradentate chelate via Re=O core)) [6-7] | 62 |  |
| D-Phe-Gln-Cys-Ala-Val-Gly-His-Leu-Leu-NH2 ([dF]QCAVGHLL-NH2; also: oxorhenium(V) N3S1 tetradentate complex via Cys) [9-7] | 19 | least activity |
| Pyr-Gln-Arg-Leu-Gly-Cys-Gln-Trp-Ala-Val-Gly-His-Leu-Nle-NH2 (QRLGCQWAVGHL; N-term pyroglutamate; Nle-NH2; rhenium complex; printed: Gln-Arg-Leu-Gly-Cys-Gln-Trp-Ala-Val-Gly-His-Leu-) [7-9] | 93 |  |
| D-Phe-Gln-Trp-Cys-Ala-Val-Gly-His-Leu-Leu-NH2 ([dF]QWCAVGHLL-NH2; also: rhenium complex (oxorhenium(V) N3S1 chelate via Cys)) [8-7] | 8 | least activity |
| Pyr-Gln-Arg-Leu-Gly-Asn-Cys-Trp-Ala-Val-Gly-His-Leu-Nle-NH2 (QRLGNCWAVGHL; N-term pyroglutamate; Nle-NH2; rhenium complex; printed: Gln-Arg-Leu-Gly-Asn-Cys-Trp-Ala-Val-Gly-His-Leu-) [7-8] | 84 |  |
| D-Phe-Gln-Trp-Ala-Val-Gly-His-Cys-Leu-NH2 ([dF]QWAVGHCL-NH2; also: rhenium complex (oxorhenium(V) N3S1 chelate via Cys)) [9-2] | 35 |  |
| Gln-Trp-Ala-Val-Cys-NH2 (QWAVC-NH2; not fully specified (bridges); printed as Gln-Trp-Ala-Val-Cys-NH2; also: oxorhenium(V) N3S1 chelate (Re(V)=O)) [11-13] | −50 | high negative percent inhibition |
| D-Phe-Gln-Trp-Ala-Cys-Val-Gly-His-Leu-Leu-NH2 ([dF]QWACVGHLL-NH2; also: oxorhenium(V) N3S1 chelate via Cys (Re(V)=O)) [8-6] | 35 | least activity |
| D-Phe-Gln-Trp-Ala-Val-Gly-His-Leu-Leu-Cys-NH2 ([dF]QWAVGHLLC-NH2; also: rhenium complex (oxorhenium(V) N3S1 chelate via Cys)) [8-1] | 39 |  |
| D-Phe-Gln-Trp-Val-Cys-Val-His-Leu-Leu-NH2 ([dF]QWVCVHLL-NH2; not fully specified (bridges); printed as D-Phe-Gln-Trp-Val-Cys-Val-His-Leu-Leu-NH2; also: oxorhenium(V) N3S1 chelate complex (Re=O)) [12-3] | 14 |  |
| D-Phe-Gln-Trp-Ala-Val-Cys-D-His-Leu-Leu-NH2 ([dF]QWAVC[dH′]LL-NH2; also: oxorhenium(V) N3S1 chelate via Cys (Re(V)=O)) [10-1] | 10 |  |
| Gln-Trp-Ala-Val-Cys-His-Leu-Leu-NH2 [11-7] (QWAVCHLL-NH2; not fully specified (bridges); printed as Gln-Trp-Ala-Val-Cys-His-Leu-Leu-NH2; also: oxorhenium(V) N3S1 chelate (Re(V)=O)) | 5 |  |
| D-Phe-Gln-Trp-D-Ala-Val-Cys-His-Leu-Leu-NH2 ([dF]QW[dA]VCHLL-NH2; numbers in words are those of the source; also: oxorhenium(V) N3S1 chelate complex (Re=O)) [10-4] | 2 |  |
| D-Phe-Gln-Trp-Ala-Cys-Gly-His-Leu-Leu-NH2 ([dF]QWACGHLL-NH2; also: oxorhenium(V) N3S1 tetradentate complex via Cys) [9-5] | 17 | least activity |
| Ala-Val-Cys-His-Leu-NH2 (AVCHL-NH2; not fully specified (bridges); printed as Ala-Val-Cys-His-Leu-NH2; also: oxorhenium(V) N3S1 chelate (Re(V)=O)) [11-9] | 7 |  |
| D-Phe-Gln-Trp-Ala-Val-Cys-NH2 ([dF]QWAVC-NH2; also: oxorhenium(V) N3S1 chelate via Cys (Re(V)=O)) [11-3] | −81 | high negative percent inhibition |
| D-Phe-Gln-D-Trp-Ala-Val-Cys-His-Leu-Leu-NH2 ([dF]Q[dW]AVCHLL-NH2; numbers in words are those of the source; also: oxorhenium(V) N3S1 tetradentate complex via Cys) [10-5] | 6 |  |
| Pyr-Gln-Arg-Leu-Gly-Asn-Gln-Trp-Ala-Val-Cys-Gly-His-Leu-Nle-NH2 ([pGlu]QRLGNQWAVCGHL[Nle]-NH2; numbers in words are those of the source; also: oxorhenium(V) N3S1 chelate (Re=O) with Cys) [6-5] | 67 |  |
| Pyr-Gln-Arg-Leu-Gly-Asn-Cys-Gln-Trp-Ala-Val-Gly-His-Leu-Nle-NH2 ([pGlu]QRLGNCQWAVGHL[Nle]-NH2; numbers in words are those of the source; also: oxorhenium(V) N3S1 chelate (Re(V)=O)) [6-9] | 91 |  |
| Trp-Ala-Val-Cys-His-NH2 (WAVCH-NH2; not fully specified (bridges); printed as Trp-Ala-Val-Cys-His-NH2; also: oxorhenium(V) N3S1 chelate (Re=O) with Cys) [11-11] | −1 |  |
| Pyr-Gln-Arg-Leu-Gly-Asn-Gln-Trp-Ala-Val-Gly-Cys-Leu-Nle-NH2 (QRLGNQWAVGCL; N-terminal pyroglutamate; C-terminal Nle-amide; printed: Gln-Arg-Leu-Gly-Asn-Gln-Trp-Ala-Val-Gly-Cys-Leu-) [7-3] | 82 |  |
| D-Phe-Gln-Trp-Ala-Val-Gly-His-Leu-Cys-Leu-NH2 ([dF]QWAVGHLCL-NH2; also: rhenium complex (oxorhenium(V) N3S1 chelate via Cys)) [8-2] | 75 |  |
| Pyr-Gln-Arg-Leu-Gly-Asn-Gln-Trp-Ala-Cys-Gly-His-Leu-Nle-NH2 (QRLGNQWACGHL; N-terminal pyroglutamate; C-terminal Nle-amide; printed: Gln-Arg-Leu-Gly-Asn-Gln-Trp-Ala-Cys-Gly-His-Leu-) [7-5] | 61 |  |
| Pyr-Gln-Arg-Leu-Gly-Asn-Gln-Trp-Ala-Val-Gly-His-Leu-Cys-Nle-NH2 (QRLGNQWAVGHLC; N-term pyroglutamate; Nle-NH2; rhenium complex; printed: Gln-Arg-Leu-Gly-Asn-Gln-Trp-Ala-Val-Gly-His-Leu-Cys-) [6-2] | 91 |  |
| D-Phe-Gln-Trp-Ala-Val-Cys-His-Leu-Leu-NH2 ([dF]QWAVCHLL-NH2; also: Re metal complex (oxorhenium(V) N3S1 chelate via Cys)) [9-4] | 75 |  |
| D-Phe-Gln-Trp-Ala-Val-Gly-His-Cys-Leu-Leu-NH2 ([dF]QWAVGHCLL-NH2; also: rhenium complex (oxorhenium(V) N3S1 chelate via Cys)) [8-3] | 49 |  |
| Trp-Ala-Val-Cys-His-Leu-NH2 (WAVCHL-NH2; not fully specified (bridges); printed as Trp-Ala-Val-Cys-His-Leu-NH2; also: oxorhenium(V) N3S1 chelate (Re=O) with Cys) [11-8] | 13 |  |
| [dF]QWA[dV]CHLL-NH2 [10-3] | 7 |  |
